The values that follow come from PubChem BioAssay (NCI).

Test systems include NCI-H226 lung; IGROV1 ovarian; MALME-3M melanoma; SW-620 colon; HT29 colon; MDA-MB-435; MCF7 breast; UO-31 renal; HCC-2998 colon; CCRF-CEM leukemia; ACHN renal; A549 NSCLC; M14 melanoma; HOP-62 NSCLC; A498 renal; UACC-62 melanoma; EKVX NSCLC; T-47D breast; NCI-H460 lung; K-562 leukemia.
Experiment in all cases: NCI tumour cell line growth inhibition, 48 h

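1) Cells in 96-well plates. 2) Compound, 48 h, 5 concentrations. 3) Linear interpolation between surrounding doses. 4) Unreached endpoint = highest concentration. At the TGI there is no net growth.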 A value given as a limit tells only on which side of the number the result lay.

Regarding `c1ccc([C@@H]2N[C@@]3(CO[Si](c4ccccc4)(c4ccccc4)c4ccccc4)CC[C@H]4CN[C@@H]2[C@H]43)cc1`, the TGI is 27.5 µM in the test on NCI-H226 lung; 26.7 µM with IGROV1 ovarian; 2.65 µM in the test with MALME-3M melanoma; 11.7 µM in the test on SW-620 colon; 7.17 µM in the test with HT29 colon; 20.8 µM with MDA-MB-435. In addition, the TGI is 11.5 µM with MCF7 breast; 22.8 µM in the test with UO-31 renal; 3.05 µM in the test on HCC-2998 colon; over 100 µM in the test with CCRF-CEM leukemia; 26.6 µM in the test with ACHN renal; 26.1 µM in the test on A549 NSCLC. Moreover, the TGI in the test on M14 melanoma was 17.4 µM; in the test on HOP-62 NSCLC, 31.2 µM; in the test with A498 renal, 30.4 µM; in the test on UACC-62 melanoma it was 28.2 µM; in the test with EKVX NSCLC, 29.5 µM; with T-47D breast, 16.7 µM. Moreover, the TGI in the test with NCI-H460 lung is 25 µM; in the test with K-562 leukemia, over 100 µM.

With `N#CC1=C(C#N)/C(=C(\C#N)C(C#N)C#N)N=C1N`, the TGI was 97.3 µM with NCI-H226 lung; over 100 µM in the test on IGROV1 ovarian; 38.2 µM in the test on MALME-3M melanoma; over 100 µM with SW-620 colon; 62.1 µM in the test with HT29 colon; 36.7 µM in the test on MDA-MB-435. Further, the TGI in the test with MCF7 breast is over 100 µM; with UO-31 renal it was over 100 µM; in the test with HCC-2998 colon it was over 100 µM; in the test with CCRF-CEM leukemia, 50.7 µM; with ACHN renal, over 100 µM; in the test on A549 NSCLC, 54.9 µM. Further, the TGI in the test on M14 melanoma was 34.3 µM; in the test on HOP-62 NSCLC, over 66.6 µM; in the test on A498 renal, 65.4 µM; with UACC-62 melanoma it was 30.3 µM; in the test on EKVX NSCLC, over 100 µM; in the test on T-47D breast, over 100 µM. Moreover, the TGI in the test with NCI-H460 lung and with K-562 leukemia was over 100 µM throughout.

Regarding `Cc1[nH]n(-c2nc3c(c(=O)[nH]2)CCC3)c(=O)c1CCO`, the TGI in the test on NCI-H226 lung, with IGROV1 ovarian, in the test on MALME-3M melanoma, in the test on SW-620 colon, with HT29 colon and in the test with MDA-MB-435 was over 100 µM each time. The TGI in the test on MCF7 breast, in the test with UO-31 renal, in the test with HCC-2998 colon, in the test on CCRF-CEM leukemia, in the test with ACHN renal and with A549 NSCLC was over 100 µM in each case. The TGI with M14 melanoma, in the test on HOP-62 NSCLC, in the test on A498 renal, in the test on UACC-62 melanoma, in the test on EKVX NSCLC and in the test on T-47D breast was over 100 µM each time. Further, the TGI in the test with NCI-H460 lung and in the test with K-562 leukemia was over 100 µM in each case.

In the case of `Cc1ccc(S(=O)(=O)NC(=O)NCC(=O)NCC(=O)O)cc1`, the TGI in the test with NCI-H226 lung, with IGROV1 ovarian, in the test on MALME-3M melanoma, in the test on SW-620 colon, with HT29 colon and with MDA-MB-435 was over 100 µM throughout. Further, the TGI in the test on MCF7 breast, in the test with UO-31 renal, in the test on HCC-2998 colon, with CCRF-CEM leukemia, in the test with ACHN renal and in the test with A549 NSCLC was over 100 µM each time. Besides, the TGI in the test with M14 melanoma, with HOP-62 NSCLC, in the test on A498 renal, with UACC-62 melanoma, in the test with EKVX NSCLC and in the test with T-47D breast was over 100 µM each time. Besides, the TGI in the test on NCI-H460 lung and in the test with K-562 leukemia was over 100 µM throughout.
